Experimental data reported in patent US20050288273A1, “Antibacterial agents” (priority 2003, published 2005).

Row | Structure (SMILES) | melting point
1 | CC(=S)NC[C@H]1CN(c2ccc3c(c2)CCCc2cnoc2-3)C(=O)O1 | 185 to 195 °C
2 | CC(=S)NC[C@H]1CN(c2ccc3c(c2)CCCc2cn[nH]c2-3)C(=O)O1 | 190 to 195 °C
3 | CC(C)(C)OC(=O)NC[C@H]1CN(c2ccc3c(c2)CCCc2cnoc2-3)C(=O)O1 | 180 to 184 °C
4 | Cl.NC[C@H]1CN(c2ccc3c(c2)CCCc2cnoc2-3)C(=O)O1 | 245 to 258 °C
5 | Cl.NC[C@H]1CN(c2ccc3c(c2)CCCc2cn[nH]c2-3)C(=O)O1 | 201 to 223 °C
6 | CCC(=O)NC[C@H]1CN(c2ccc3c(c2)CCCc2cnoc2-3)C(=O)O1 | 185 to 186 °C
7 | CC(C)C(=O)NC[C@H]1CN(c2ccc3c(c2)CCCc2cnoc2-3)C(=O)O1 | 187 to 193 °C
8 | O=C(NC[C@H]1CN(c2ccc3c(c2)CCCc2cnoc2-3)C(=O)O1)C1CC1 | 211 to 215 °C
9 | O=C(CC1CC1)NC[C@H]1CN(c2ccc3c(c2)CCCc2cnoc2-3)C(=O)O1 | 187 to 191 °C
10 | O=C(CC1CCCC1)NC[C@H]1CN(c2ccc3c(c2)CCCc2cnoc2-3)C(=O)O1 | 193 to 195 °C
11 | COC(=O)CC(=O)NC[C@H]1CN(c2ccc3c(c2)CCCc2cnoc2-3)C(=O)O1 | 205 to 217 °C
12 | O=C(NC[C@H]1CN(c2ccc3c(c2)CCCc2cnoc2-3)C(=O)O1)c1ccccc1 | 240 to 245 °C
13 | O=C(CC(F)(F)F)NC[C@H]1CN(c2ccc3c(c2)CCCc2cnoc2-3)C(=O)O1 | 150 to 186 °C
14 | O=C(NC[C@H]1CN(c2ccc3c(c2)CCCc2cnoc2-3)C(=O)O1)C(F)F | 145 to 180 °C
15 | CC(C)C(=O)NC[C@H]1CN(c2ccc3c(c2)CCCc2cnn(C(=O)C(C)C)c2-3)C(=O)O1 | 75 to 80 °C
16 | O=C(CC1CCCC1)NC[C@H]1CN(c2ccc3c(c2)CCCc2cnn(C(=O)CC4CCCC4)c2-3)C(=O)O1 | 165 to 167 °C
17 | O=C(NC[C@H]1CN(c2ccc3c(c2)CCCc2cnn(C(=O)c4ccccc4)c2-3)C(=O)O1)c1ccccc1 | 75 to 95 °C
18 | O=C(NC[C@H]1CN(c2ccc3c(c2)CCCc2cn[nH]c2-3)C(=O)O1)C(F)F | 147 to 150 °C
19 | CCC(=O)NC[C@H]1CN(c2ccc3c(c2)CCCc2cn[nH]c2-3)C(=O)O1 | 233 to 235 °C
20 | O=C(NC[C@H]1CN(c2ccc3c(c2)CCCc2cn[nH]c2-3)C(=O)O1)C1CC1 | 224 to 227 °C
21 | O=C(CC1CC1)NC[C@H]1CN(c2ccc3c(c2)CCCc2cn[nH]c2-3)C(=O)O1 | 212 to 215 °C
22 | O=C(CC1CCCC1)NC[C@H]1CN(c2ccc3c(c2)CCCc2cn[nH]c2-3)C(=O)O1 | 205 to 208 °C
